Laboratory results reported in patent publication US20240226227A9, “BONE DISEASE TREATMENT” (The University of Birmingham, priority 2019, published 2024).

Tests used:
[1] = test system: primary murine osteoblast cells; assay: Alizarin red mineralization assay, primary murine osteoblasts; assay type: cell-based, mouse; details: 10 ng/ml PEPITEM, vs untreated cells, paired t-test
Procedure: Day 3-5 WT mouse pups were culled via decapitation and heads were washed briefly in 70% ethanol and kept hydrated in αMEM media supplemented with 2 mM L-Glutamine, 100 U/ml Penicillin and 100 μg/ml Streptomycin. Skin was removed from around calvaria using forceps, and the calvaria was dissected out and cleaned of any contaminating tissue. Calvaria were added to αMEM media supplemented with 1 mg/ml of collagenase d (Roche™, Basel, Switzerland, COLLD-RO). Tubes were then agitated at 37° C. for 10 minutes and the media discarded. αMEM media supplemented with 1 mg/ml of collagenase d was again added to calvaria and shaken at 37° C. for 30 minutes. […] Cells on ice were then spun down at 300 g for 4 minutes, resuspended in 1 ml of Basal media and counted using a haemocytometer. […]
(§1) Osteoblasts were cultured in mineralization differentiation media in the presence or absence of PEPITEM (10 ng/ml) over a 21-day period, dependent on cell source. Mineralization was assessed by quantifying the amount of alizarin red (nM) or the level of alkaline phosphate activity (absorbance at 405 nm) per condition.
(§2) Alizarin red analysis was performed following the manufacturer's instructions (Caltag+Medsystems™, Buckingham, UK, SC8678). […] Alizarin red was quantified using ImageJ™ (NIH) by removing backing, converting to a binary image and measuring area fraction stained. […]

[2] = test system: long bones of wild-type mice; assay: Bone homeostasis in young healthy mice, microCT of long bones; assay type: in vivo, mouse; details: daily i.p. 300 μg for 14 days, vs PBS
Procedure: (§3) All experiments were performed in accordance with UK Home Office regulations. For the animal studies, in each experiment wild-type (WT) animals were allocated at random to different experimental groups. Importantly, mice from the same litter were randomly distributed amongst the experimental groups, and where possible, they were equally distributed amongst experimental groups. Injections of peptide were carried out at the same time of day, with identical reagents when possible. The investigators were not blinded to allocation during experiments and outcome assessment. All samples analyzed were included in the study.
(§4) WT mice were housed in the Biomedical Services Unit at the University of Birmingham. Mice were used between 6 and 16 weeks of age. • 1. Homeostasis—Six-week-old male wild-type mice were treated with or without daily intraperitoneal (i.p.) injections of PEPITEM (300 μg) for 2 weeks. Mice were culled at 2 weeks to examine the effect of PEPITEM on bone homeostasis in young resting bones. • 2. Ovariectomy (model of age-related osteoporosis)—Twelve-week-old female wild-type mice were subjected to ovariectomy (OVX). Two weeks post-surgery, mice were treated with or without daily i.p. injections of PEPITEM (300 μg) for 2 weeks. Mice were culled at 2 weeks to obtain baseline bone loss measurements, or at 4 weeks to examine the effect of PEPITEM on OVX-induced bone loss. • 3. Analysis of murine bone parameters—Histomorphometry analysis was performed on long bones (femur; tibia) and/or spine to determine the effects of PEPITEM on the structural architecture of the tissue, cellular distribution and bone volume, including TRAP and Toluidine blue staining for osteoclasts and osteoblasts respectively. For information on these staining methods, see Das, P. et al., PNAS, 2018, 115(43), E10137-E10146 and Waddington, R. J. and Sloan, A. J. eds. Tissue Engineering and Regeneration in Dentistry: Current Strategies. West Sussex: John Wiley & Sons. Femurs were subjected to a 3-point bending test using a Bose 5500 (Bose) to determine the stiffness of the bones and the force required to fracture the bone. For more information on the 3-point bending test method, see Huesa, C. et al., Bone, 2011, 48(5), 1066-1074.

[3] = test system: ovariectomized wild-type mice; assay: Ovariectomy model of age-related osteoporosis, microCT of long bones; assay type: in vivo, mouse; details: OVX mice
Procedure: as §3, §4

[4] = test system: primary human osteoblasts; assay: Alkaline phosphatase activity (mineralization), primary human osteoblasts; assay type: cell-based; details: 10 ng/ml PEPITEM, vs untreated cells, paired t-test
Procedure: Human osteoarthritis subchondral joint tissue was obtained at the time of total knee and hip joint replacement operations from the Royal Orthopaedic Hospital (Birmingham). To isolate primary osteoblasts, cartilage was removed from the femoral condyles and tibial plateaus and cut into 2 mm^2 pieces. Samples were kept in media and cleaned of fat. Media contains DMEM (Sigma™, D6546), FCS (10%), GPS (1%), Non-essential amino acid (1%; Sigma™, M7145), β-glycerophosphate (2 mM; Sigma™—G9422) and L-Ascorbic acid (50 μg/ml; Sigma™, A5960). Bone chips were placed in T75 flasks in 10 ml of media, replacing media every 2-3 days. Main outgrowth occurs between 10-14 days, after which chips were placed in new flasks. […]
as §1
To measure alkaline phosphatase activity, cells were washed in PBS before being lysed in 100 μl of RIPA buffer (Thermo Fisher™, R0278) for 15 minutes on ice. […] The plate was wrapped in foil and left to run for 45 minutes at 37° C. in an incubated shaker (SciQuip™; Shropshire, UK) before being quantified using a Synergy HT plate reader (BioTek™) with absorbance set at 405 nm.

[5] = test system: murine osteoblast cell line MC3T3; assay: Alizarin red mineralization assay, MC3T3 osteoblast cell line; assay type: cell-based, mouse; details: MC3T3 cells, 10 ng/ml PEPITEM in differentiation media, up to 21 days, vs untreated cells
Procedure: The spontaneously immortalised murine MC3T3-E1 cell line (ATCC, England, UK, CRL-2593) was brought up from liquid nitrogen and cultured in basal media made up of: αMEM media (Sigma-Aldrich™, St. Louis, MO, USA, M8042) supplemented with 2 mM L-Glutamine, 100 U/ml Penicillin and 100 μg/ml Streptomycin (all from Sigma-Aldrich™, G1146) and fetal bovine serum [(FBS) Biosera™, East Sussex, UK, FB1001]. […] Mineralisation was assessed using an Alizarin red staining quantification assay and ALP activity.
as §1, §2

[6] = test system: vertebra of wild-type mice; assay: Bone homeostasis in young healthy mice, microCT of vertebra; assay type: in vivo, mouse; details: daily i.p. 300 μg for 14 days, vs PBS
Procedure: as §3, §4

[7] = test system: osteoclasts and chondroclasts in tibia of wild-type mice; assay: TRAP staining of decalcified tibia sections, osteoclast and chondroclast counts; assay type: in vivo, mouse; details: daily injections for 14 days, vs PBS
Procedure: WT mice were housed in the Biomedical Services Unit at the University of Birmingham. Mice were used between 6 and 16 weeks of age. • 1. Homeostasis—Six-week-old male wild-type mice were treated with or without daily intraperitoneal (i.p.) injections of PEPITEM (300 μg) for 2 weeks. Mice were culled at 2 weeks to examine the effect of PEPITEM on bone homeostasis in young resting bones. • 2. Ovariectomy (model of age-related osteoporosis)—Twelve-week-old female wild-type mice were subjected to ovariectomy (OVX). Two weeks post-surgery, mice were treated with or without daily i.p. injections of PEPITEM (300 μg) for 2 weeks. Mice were culled at 2 weeks to obtain baseline bone loss measurements, or at 4 weeks to examine the effect of PEPITEM on OVX-induced bone loss. • 3. […]
For analysis of whole hind limb sections, Zen Blue software (ZEISS, Cambridge, UK) was used to break whole leg scans into regions of 20 μm by 20 μm, which were saved as images (JPEG) and opened on ImageJ™ (National institute of health (NIH); Maryland, USA). […] Osteoclasts were counted per region using ImageJ™ count maxima tool, where maxima were defined according to noise tolerance to neighboring squares and given as total number of osteoclasts per section. […]

[8] = test system: long bones of wild-type mice; assay: 3-point bending test of long bones ex vivo after treatment of mice; assay type: in vivo, mouse; details: daily injections for 14 days, vs PBS
Procedure: as §4

[9] = long bones, daily i.p. 300 μg for 2 weeks from 2 weeks post surgery, vs untreated

Q: How did the “osteoblast mineralization (Alizarin Red staining)” value [1] turn out when “PEPITEM (SVTEQGAELSNEER; listed as Homo sapiens)” was run?
A: significantly increased

Q: And the “bone volume to trabecular bone volume ratio (BV/TV)” value [2]?
A: significantly increased

Q: And the trabecular number [2]?
A: significantly increased

Q: And the trabecular separation [2]?
A: decreased

Q: And the trabecular thickness [2]?
A: significantly increased

Q: What about the “additional bone loss after ovariectomy” value ([3]; 4 weeks post surgery, compared to 2-week untreated (baseline) mice) of the same substance?
A: prevented additional bone loss

Q: And the “bone volume to trabecular bone volume ratio (BV/TV)” value [3, 9]?
A: significantly increased

Q: And the trabecular number [3, 9]?
A: significantly increased

Q: And the trabecular separation [3, 9]?
A: decreased

Q: And the trabecular thickness [3, 9]?
A: significantly increased

Q: What about the “osteoblast mineralization (alkaline phosphatase activity)” value [4] of the same substance?
A: significantly increased

Q: What about the “production of bone mineral (Alizarin Red staining)” value [5] of the same substance?
A: stimulates the production of bone mineral

Q: What about the “bone volume to trabecular bone volume ratio (BV/TV)” value [6] of the same substance?
A: significantly increased

Q: And the trabecular number [6]?
A: significantly increased

Q: And the trabecular separation [6]?
A: decreased

Q: What about the trabecular thickness [6] of the same substance?
A: significantly increased

Q: And the “number of chondroclasts per μm” value [7]?
A: reduced

Q: And the “number of osteoclasts per mm^2 within the tibia” value [7]?
A: significantly reduces

Q: What about the bending force [8] of the same substance?
A: significantly increased

Q: What about the fracture force [8] of the same substance?
A: significantly increased

Q: What about the “stiffness of the bone” value [8] of the same substance?
A: significantly increased
